From patent US20250195513A1, “DEGRADATION OF IRAK4 BY CONJUGATION OF IRAK4 INHIBITORS WITH E3 LIGASE LIGAND AND METHODS OF USE” (BeiGene, Ltd., priority 2022, published 2025)
Like-named read-outs stand apart in the source and are kept apart here.

Biological target: T1, IRAK4 (Homo sapiens, UniProt Q9NWZ3)
T1 construct: endogenous in cells; host or cells: Karpas299
T1 sequence (Q9NWZ3 1-460): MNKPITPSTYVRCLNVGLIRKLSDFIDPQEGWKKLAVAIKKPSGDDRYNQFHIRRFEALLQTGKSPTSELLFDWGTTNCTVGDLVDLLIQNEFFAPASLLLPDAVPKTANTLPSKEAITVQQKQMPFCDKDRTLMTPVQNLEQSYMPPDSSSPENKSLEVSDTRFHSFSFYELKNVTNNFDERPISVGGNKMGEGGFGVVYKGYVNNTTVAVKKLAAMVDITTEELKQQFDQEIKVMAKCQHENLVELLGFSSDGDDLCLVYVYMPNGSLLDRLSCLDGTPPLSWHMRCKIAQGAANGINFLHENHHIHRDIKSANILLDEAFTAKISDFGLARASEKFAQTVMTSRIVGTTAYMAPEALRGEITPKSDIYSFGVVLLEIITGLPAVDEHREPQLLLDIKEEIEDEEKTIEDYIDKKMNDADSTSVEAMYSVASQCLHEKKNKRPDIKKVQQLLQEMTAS
Test: IRAK4 Degradation Assay (Karpas299, HTRF/TR-FRET)
Format: cell-based
Procedure: IRAK4 degradation was measured using a TR-FRET-based method (Degorce, François, et al. Current chemical genomics. 2009, 3: 22). Karpas299 maintained in RPMI 1640 medium (Thermo Scientific) supplemented with 20% fetal bovine serum (FBS, Thermo Scientific), 100 units/mL penicillin and 0.1 mg/mL streptomycin (Thermo Scientific) were seeded into 96-well plates at the density of 0.2 million cells per well and then treated with a series dilution of compounds. After 24 hours or 5 hours treatment, cells were pelleted via centrifugation and 40 μL lysis buffer (Cisbio) was added to each well after removal of the supernatant. Plates were then incubated at room temperature with shaking for 30 minutes. A total of 16 μL of cell lysates from each well of a 96-well plate was transferred to a 384-well white assay plate. IRAK4 level was quantitated using the HTRF kit as described by the manufacturer manual (Cisbio). FRET signals were measured using a PHERAstar FSX reader (BMG Labtech).
After treatment, add HTRF lysis buffer to each well; seal the plate and incubate 1 hour at room temperature on a plate shaker; Once the cells are lysed, 16 μL of cell lysate are transferred to a PE 384-well HTRF detection plate; 4 μL of pre-mixed HTRF antibodies are added to each well; Cover the plate with a plate sealer, spin 1000 rpm for 1 min, Incubate overnight at room temperature; Read on BMG PheraStar with HTRF protocol (337 nm-665 nm-620 nm).
The inhibition (degradation) percentage of the compound was calculated by the following equation: […]
The IC50 (DC50) value of a compound can be obtained by fitting the following equation
Wherein, X and Y are known values, and IC50, Hillslope, Top and Bottom are the parameters obtained by fitting with software. Y is the inhibition percentage (calculated from the equation), X is the concentration of the compound; IC50 is the concentration of the compound when the […] is reached. The smaller the IC50 value is, the stronger the inhibitory ability of the compound is. Vice versa, the higher the IC50 value is, the weaker the ability the inhibitory ability of the compound is; Hillslope represents the slope of the fitted curve, generally around 1 *; Bottom represents the minimum value of the curve obtained by data fitting, which is generally 0%±20%; Top represents the maximum value of the curve obtained by data fitting, which is generally 100%±20%. The experimental data were fitted by calculating and analyzing with Dotmatics data analysis software.

[1] = Karpas-299 cells, 24 h treatment, maximum percentage of degradation, read-out: IRAK4 in Karpas-299 (24 h) Dmax (%)
[2] = Karpas-299 cells, 24 h treatment, read-out: IRAK4 in Karpas-299 (24 h) DC50
[3] = Karpas-299 cells, 5 h treatment, maximum percentage of degradation, read-out: IRAK4 in Karpas-299 (5 h) Dmax (%)
[4] = Karpas-299 cells, 5 h treatment, read-out: IRAK4 in Karpas-299 (5 h) DC50
[5] = Degradation (Karpas-299), comparison table, Linker Type A, read-out: Compound (Linker Type A) DC50
[6] = Degradation (Karpas-299), comparison table, Linker Type A, read-out: Compound (Linker Type A) Dmax (%)

SMILES | Dmax [1] [%] | DC50 [2] [nM] | Dmax [3] [%] | DC50 [4] [nM] | DC50 [5] [nM] | Dmax [6] [%]
O=C1CC[C@H](c2c(F)cc(N3CC(CN4CCN([C@H]5CC[C@H](n6cc(NC(=O)c7coc(-c8ccnc(NCC9CC9)c8)n7)c(C(F)F)n6)CC5)CC4)C3)cc2F)C(=O)N1 [Example 27, 2-(2-((cyclopropylmethyl)amino)pyridin-4-yl)-N-(3-(difluoromethyl)-1-((1r,4r)-4-(4-((1-(4-((R)-2,6-dioxopiperidin-3-yl)-3,5-difluorophenyl)azetidin-3-yl)methyl)piperazin-1-yl)cyclohexyl)-1H-pyrazol-4-yl)oxazole-4-carboxamide] | 99 | 2.8 |  |  |  | 
NC(=O)c1nn(-c2ccc(N3CCN(C(=O)C4CN(c5ccc(N6CCC(=O)NC6=O)cc5)C4)CC3)nc2)cc1NC(=O)c1coc(-c2ccnc(NCC(F)(F)F)c2)n1 [Example 28, N-(3-carbamoyl-1-(6-(4-(1-(4-(2,4-dioxotetrahydropyrimidin-1(2H)-yl)phenyl)azetidine-3-carbonyl)piperazin-1-yl)pyridin-3-yl)-1H-pyrazol-4-yl)-2-(2-((2,2,2-trifluoroethyl)amino)pyridin-4-yl)oxazole-4-carboxamide] | 96 | 2.5 |  |  |  | 
O=C1CC[C@H](c2c(F)cc(N3CC(C(=O)N4CCN(c5ccc(-n6cc(NC(=O)c7coc(-c8ccnc(NCC(F)(F)F)c8)n7)c(C(F)F)n6)cn5)CC4)C3)cc2F)C(=O)N1 [Example 29] | 96 | 6.9 | 76 | 162 |  | 
Cc1cc(-c2nc(C(=O)Nc3cn(-c4ccc(N5CCN(C(=O)[C@@H]6CCN(c7cc(F)c([C@H]8CCC(=O)NC8=O)c(F)c7)C6)CC5)nc4)nc3C(N)=O)co2)ccn1 [Example 30, N-(3-carbamoyl-1-(6-(4-((R)-1-(4-((R)-2,6-dioxopiperidin-3-yl)-3,5-difluorophenyl)pyrrolidine-3-carbonyl)piperazin-1-yl)pyridin-3-yl)-1H-pyrazol-4-yl)-2-(2-methylpyridin-4-yl)oxazole-4-carboxamide] | 95 | 3.2 | 76 | 5.3 |  | 
Cc1cc(-c2nc(C(=O)Nc3cn(-c4ccc(N5CCN(C(=O)C6CN(c7ccc(N8CCC(=O)NC8=O)cc7)C6)CC5)nc4)nc3C(N)=O)co2)ccn1 [Example 31, N-(3-carbamoyl-1-(6-(4-(1-(4-(2,4-dioxotetrahydropyrimidin-1(2H)-yl)phenyl)azetidine-3-carbonyl)piperazin-1-yl)pyridin-3-yl)-1H-pyrazol-4-yl)-2-(2-methylpyridin-4-yl)oxazole-4-carboxamide] | 96 | 5.8 | 89 | 8.2 |  | 
COc1cc2nn([C@H]3CC[C@H](NC(=O)C4CCN(c5ccc6c(c5)C(=O)N(C5CCC(=O)NC5=O)C6=O)CC4)CC3)cc2cc1NC(=O)c1cccc(C(F)(F)F)n1 (stereo partly shown) [Example 32, N-(2-((1r,4r)-4-(1-(2-(2,6-dioxopiperidin-3-yl)-1,3-dioxoisoindolin-5-yl)piperidine-4-carboxamido)cyclohexyl)-6-methoxy-2H-indazol-5-yl)-6-(trifluoromethyl)picolinamide] | 95 | 2.7 | 91 | 15 |  | 
COc1cc2nn(C3CCN(C(=O)[C@H]4CC[C@H](Oc5ccc(C6CCC(=O)NC6=O)cc5)CC4)CC3)cc2cc1NC(=O)c1cccc(C(F)(F)F)n1 (stereo partly shown) [Example 35, N-(2-(1-((1r,4r)-4-(4-(2,6-dioxopiperidin-3-yl)phenoxy)cyclohexane-1-carbonyl)piperidin-4-yl)-6-methoxy-2H-indazol-5-yl)-6-(trifluoromethyl)picolinamide] | 10 | > 10000 |  |  | > 10000 | 10
COc1cc2nn([C@H]3CC[C@H](CN4CCN(C(=O)[C@@H]5CCN(c6ccc(N7CCC(=O)NC7=O)cc6)C5)CC4)CC3)cc2cc1NC(=O)c1cccc(C(F)(F)F)n1 [Example 36, N-(2-((1R,4r)-4-((4-((R)-1-(4-(2,4-dioxotetrahydropyrimidin-1(2H)-yl)phenyl)pyrrolidine-3-carbonyl)piperazin-1-yl)methyl)cyclohexyl)-6-methoxy-2H-indazol-5-yl)-6-(trifluoromethyl)picolinamide] | 89 | 15 |  |  | 15 | 89
CC(C)(O)c1cc2nn([C@H]3CC[C@H](N4CCN(C(=O)[C@@H]5CCN(c6cc(F)c([C@H]7CCC(=O)NC7=O)c(F)c6)C5)CC4)CC3)cc2cc1NC(=O)c1cccc(C(F)(F)F)n1 [Example 39, N-(2-((1R,4r)-4-(4-((R)-1-(4-((R)-2,6-dioxopiperidin-3-yl)-3,5-difluorophenyl)pyrrolidine-3-carbonyl)piperazin-1-yl)cyclohexyl)-6-(2-hydroxypropan-2-yl)-2H-indazol-5-yl)-6-(trifluoromethyl)picolinamide] | 99 | 0.8 | 96 | 4.6 |  | 

Results, then the compound that gave them:

Dmax [1] [%] | DC50 [2] [nM] | Dmax [3] [%] | DC50 [4] [nM] | DC50 [5] [nM] | Dmax [6] [%] | SMILES
99 | 0.9 | 89 | 23 |  |  | CC(C)(O)c1cc2nn([C@H]3CC[C@H](N4CCN(C(=O)C5CN(c6ccc(N7CCC(=O)NC7=O)cc6)C5)CC4)CC3)cc2cc1NC(=O)c1cccc(C(F)(F)F)n1 [Example 40, N-(2-((1r,4r)-4-(4-(1-(4-(2,4-dioxotetrahydropyrimidin-1(2H)-yl)phenyl)azetidine-3-carbonyl)piperazin-1-yl)cyclohexyl)-6-(2-hydroxypropan-2-yl)-2H-indazol-5-yl)-6-(trifluoromethyl)picolinamide]
95 | 1.1 |  |  |  |  | COc1cc2nn(C3CCN(C4CN(C(=O)C5CN(c6cc(F)c([C@H]7CCC(=O)NC7=O)c(F)c6)C5)C4)CC3)cc2cc1NC(=O)c1cccc(C(F)(F)F)n1 [Example 41, (R)—N-(2-(1-(1-(1-(4-(2,6-dioxopiperidin-3-yl)-3,5-difluorophenyl)azetidine-3-carbonyl)azetidin-3-yl)piperidin-4-yl)-6-methoxy-2H-indazol-5-yl)-6-(trifluoromethyl)picolinamide]
95 | 2.2 | 83 | 4.9 |  |  | COc1cc2nn(C3CCN(C4CN(C(=O)[C@@H]5CCN(c6cc(F)c([C@H]7CCC(=O)NC7=O)c(F)c6)C5)C4)CC3)cc2cc1NC(=O)c1cccc(C(F)(F)F)n1 [Example 42, N-(2-(1-(1-((R)-1-(4-((R)-2,6-dioxopiperidin-3-yl)-3,5-difluorophenyl)pyrrolidine-3-carbonyl)azetidin-3-yl)piperidin-4-yl)-6-methoxy-2H-indazol-5-yl)-6-(trifluoromethyl)picolinamide]
95 | 7.7 |  |  |  |  | COc1cc2nn(C3CCN(C4CCN(C(=O)[C@@H]5CCN(c6cc(F)c([C@H]7CCC(=O)NC7=O)c(F)c6)C5)CC4)CC3)cc2cc1NC(=O)c1cccc(C(F)(F)F)n1 [Example 43, N-(2-(1′-((R)-1-(4-((R)-2,6-dioxopiperidin-3-yl)-3,5-difluorophenyl)pyrrolidine-3-carbonyl)-[1,4′-bipiperidin]-4-yl)-6-methoxy-2H-indazol-5-yl)-6-(trifluoromethyl)picolinamide]
99 | 9.3 |  |  |  |  | COc1cc2nn(C3CCN(C4CCN(C(=O)C5CN(c6ccc(N7CCC(=O)NC7=O)cc6)C5)CC4)CC3)cc2cc1NC(=O)c1cccc(C(F)(F)F)n1 [Example 44, N-(2-(1′-(1-(4-(2,4-dioxotetrahydropyrimidin-1(2H)-yl)phenyl)azetidine-3-carbonyl)-[1,4′-bipiperidin]-4-yl)-6-methoxy-2H-indazol-5-yl)-6-(trifluoromethyl)picolinamide]
